Numbers after ± are expanded uncertainties.
Assay: osmotic coefficient (dimensionless); mn = molality of the nth substance listed, in mol/kg
Conditions: 323.15 K, Liquid, vapor pressure osmometry

## CC(C)O [propan-2-ol] + COS(=O)(=O)[O-].Cc1ccc[n+](C)c1
m1 = 0.072
  osmotic coefficient: 0.969 ± 0.012
m1 = 0.1185
  osmotic coefficient: 0.873 ± 0.013
m1 = 0.2149
  osmotic coefficient: 0.767 ± 0.015
m1 = 0.3087
  osmotic coefficient: 0.699 ± 0.016
m1 = 0.408
  osmotic coefficient: 0.654 ± 0.017
m1 = 0.5005
  osmotic coefficient: 0.628 ± 0.018
m1 = 0.7082
  osmotic coefficient: 0.57 ± 0.019
m1 = 1.013
  osmotic coefficient: 0.532 ± 0.02
m1 = 1.296
  osmotic coefficient: 0.51 ± 0.021
m1 = 1.72
  osmotic coefficient: 0.49 ± 0.022
m1 = 2.095
  osmotic coefficient: 0.468 ± 0.022
m1 = 2.494
  osmotic coefficient: 0.46 ± 0.023
m1 = 2.956
  osmotic coefficient: 0.436 ± 0.023
m1 = 3.326
  osmotic coefficient: 0.419 ± 0.024

## CCC(C)O (centres undefined) [butan-2-ol] + COS(=O)(=O)[O-].Cc1ccc[n+](C)c1
m1 = 0.0458
  osmotic coefficient: 0.818 ± 0.014
m1 = 0.0728
  osmotic coefficient: 0.729 ± 0.016
m1 = 0.0933
  osmotic coefficient: 0.696 ± 0.016
m1 = 0.2019
  osmotic coefficient: 0.605 ± 0.018
m1 = 0.3113
  osmotic coefficient: 0.547 ± 0.02
m1 = 0.3991
  osmotic coefficient: 0.512 ± 0.021
m1 = 0.4981
  osmotic coefficient: 0.474 ± 0.022
m1 = 0.6846
  osmotic coefficient: 0.441 ± 0.023
m1 = 0.9815
  osmotic coefficient: 0.408 ± 0.024
m1 = 1.285
  osmotic coefficient: 0.383 ± 0.025
m1 = 1.687
  osmotic coefficient: 0.361 ± 0.026
m1 = 2.105
  osmotic coefficient: 0.345 ± 0.026
m1 = 2.501
  osmotic coefficient: 0.333 ± 0.026
m1 = 2.914
  osmotic coefficient: 0.327 ± 0.027
m1 = 3.291
  osmotic coefficient: 0.32 ± 0.027

## CCCO [propan-1-ol] + COS(=O)(=O)[O-].Cc1ccc[n+](C)c1
m1 = 0.0785
  osmotic coefficient: 0.885 ± 0.013
m1 = 0.0971
  osmotic coefficient: 0.803 ± 0.015
m1 = 0.2088
  osmotic coefficient: 0.711 ± 0.016
m1 = 0.3089
  osmotic coefficient: 0.671 ± 0.017
m1 = 0.4144
  osmotic coefficient: 0.658 ± 0.017
m1 = 0.5126
  osmotic coefficient: 0.642 ± 0.017
m1 = 0.8126
  osmotic coefficient: 0.609 ± 0.018
m1 = 1.104
  osmotic coefficient: 0.576 ± 0.019
m1 = 1.401
  osmotic coefficient: 0.548 ± 0.02
m1 = 1.691
  osmotic coefficient: 0.533 ± 0.02
m1 = 2.219
  osmotic coefficient: 0.508 ± 0.021
m1 = 2.721
  osmotic coefficient: 0.494 ± 0.022
m1 = 3.211
  osmotic coefficient: 0.478 ± 0.022

## CCCCO [butan-1-ol] + COS(=O)(=O)[O-].Cc1ccc[n+](C)c1
m1 = 0.0259
  osmotic coefficient: 0.824 ± 0.014
m1 = 0.0466
  osmotic coefficient: 0.746 ± 0.015
m1 = 0.1056
  osmotic coefficient: 0.668 ± 0.017
m1 = 0.2078
  osmotic coefficient: 0.601 ± 0.019
m1 = 0.3112
  osmotic coefficient: 0.528 ± 0.021
m1 = 0.4005
  osmotic coefficient: 0.501 ± 0.021
m1 = 0.5132
  osmotic coefficient: 0.469 ± 0.022
m1 = 0.9858
  osmotic coefficient: 0.425 ± 0.024
m1 = 1.282
  osmotic coefficient: 0.406 ± 0.024
m1 = 1.685
  osmotic coefficient: 0.394 ± 0.025
m1 = 2.078
  osmotic coefficient: 0.387 ± 0.025
m1 = 2.497
  osmotic coefficient: 0.375 ± 0.025
m1 = 2.911
  osmotic coefficient: 0.368 ± 0.025

## CCCCCO [pentan-1-ol] + COS(=O)(=O)[O-].Cc1ccc[n+](C)c1
m1 = 0.0303
  osmotic coefficient: 0.77 ± 0.015
m1 = 0.0543
  osmotic coefficient: 0.677 ± 0.017
m1 = 0.0875
  osmotic coefficient: 0.618 ± 0.018
m1 = 0.1103
  osmotic coefficient: 0.584 ± 0.019
m1 = 0.2153
  osmotic coefficient: 0.505 ± 0.021
m1 = 0.3078
  osmotic coefficient: 0.464 ± 0.022
m1 = 0.412
  osmotic coefficient: 0.425 ± 0.024
m1 = 0.5092
  osmotic coefficient: 0.401 ± 0.024
m1 = 0.8077
  osmotic coefficient: 0.372 ± 0.025
m1 = 1.106
  osmotic coefficient: 0.352 ± 0.026
m1 = 1.71
  osmotic coefficient: 0.33 ± 0.027
m1 = 2.229
  osmotic coefficient: 0.315 ± 0.027
m1 = 2.726
  osmotic coefficient: 0.308 ± 0.027
m1 = 3.198
  osmotic coefficient: 0.3 ± 0.028

Reference: the NIST ThermoML archive (doi:10.1016/j.jct.2011.01.010)
